Measurements reported in patent publication US20220031632A1, “NANOPARTICLE COMPOSITIONS AND USES THEREOF” (OP-T LLC, priority 2020, published 2022).
“Also recorded” adds a separate entry of the source. Where no end group is shown, it is not given here.

Columns and labels:
[1] = system: CD3+ T cells and antigen presenting cells (APC); experiment: Fluorescent peptide binding to PBMCs from MS patients by flow cytometry; type: cell-based, human; settings: fluorescenated peptides
Procedure: In some embodiments, the size (length—i.e. number of amino acids) of the peptide may matter for disease prevention capacity. […] In some embodiments, use of different length peptides may be advantageous in treatment of different diseases as each disease may be driven primarily by one cell type or another.
Peripheral blood mononuclear cells from MS patients were stained then gated on CD3^+ for T cells or on CD3^− for antigen presenting cells (APC) were analyzed for peptide binding levels. Different cells bind different peptides with different intensities as determined by flow cytometry. There were 24 subjects in each test.

NOD mice [2] = experiment: Diabetes prevention in NOD mice treated with peptides; type: in vivo, mouse; settings: for diabetes onset (blood glucose >250 mg/dl): NOD mice treated with different sizes of peptides, n=10
Procedure: (a) The amino acid sequence of mouse CD154 is depicted, with amino acids known to interact with CD40 shown in bold. A 15 amino acid sequence is highlighted in grey and aligned with the same motif in human CD154. A previously studied peptide is highlighted. (b) NOD mice were treated with different sizes of peptides, as indicated (n=10 in all groups). Mice were monitored for diabetes onset (blood glucose >250 mg/dl). Differences were significant by two-way ANOVA; p<0.0001.
FIG. 3 includes sub-parts FIGS. 3A and 3B. […] The percent of subjects that developed diabetes in the KGYY15 subjects was much lower, as compared with the RGD peptide and the scrambled peptide. KGYY15 diabetes prevention is sequence dependent, and several amino acid positions are critical for its function. (a) KGYY15-treated mice were compared with mice treated with a scrambled peptide or a peptide targeting the RGD region (sequences indicated above the graph). (b) KGYY15-treated mice were compared with mice treated with a 15-mer peptide series in which single amino acids, as indicated, were substituted for glycine. L137; Y144; T146; M147; N150; n=10 in all groups shown in (a) and (b), except for L137, where n=9. Differences were significant by two-way ANOVA; p<0.0001

[3] = system: T cells from KGYY15 treated mice; experiment: T cell proliferation (CFSE dilution) with autologous APC loaded with KGYY15; type: cell-based, mouse; settings: APC +/- KGYY15, 5 days, n=5
Procedure: (§1) NOD mice were injected weekly for 7 weeks with 1 mg/kg of KGYY15. In FIG. 4A, serum was collected from injected or control mice and used, followed by anti-mouse-IgG secondary antibody, in western blots for detection of KGYY15 peptide or soluble CD154 (sCD154; KGYY15 and sCD154 sizes are indicated with arrows). […] As a standard, KGYY15-biotin was run and detected with streptavidin-HRP. Experiment was done twice, pooling serum from 2 and 3 mice in each experiment, respectively. In FIGS. 4B and 4C, sorted splenic APC from KGYY15 treated mice were loaded with KGYY15 or not. T cells from KGYY15 treated mice were CFSE labelled then exposed to the autologous APC (+/− KGYY15) and incubated for 5 days. […] Representative histogram of CFSE dilution: Black line—T cells alone; Grey tinted—T cells+APC alone; Dotted line—T cells+APC loaded with KGYY15. Graph depicts cumulative data (n=5 in each group).

NOD mice [4] = experiment: Immunogenicity: serum antibodies to KGYY15 or sCD154 by western blot; type: in vivo, mouse; settings: 1 mg/kg weekly for 7 weeks
Procedure: as §1

NOD mice [5] = experiment: Reversal of overt hyperglycemia in new onset diabetic NOD mice, daily KGYY15; type: in vivo, mouse
Procedure: FIG. 2, which includes FIG. 2A-2D, is based on a study of the use of KGYY15 to treat NOD mice. […] Immediately after diabetes onset (blood glucose >250 mg/dl; n=9), mice were treated daily with KGYY15 and blood glucose was monitored. […] FIG. 2C is a graph showing Islet insulitis scores in reversed and non-reversed mice: 0, no infiltration (black); 1, 25% infiltration (striped); 2, 50% infiltration (dark grey); 3, 75% infiltration (light grey); 4, 100% infiltration (white). FIG. 2D is a graph showing Islet insulin granulation scores: 0, less than 25% granulation; 1, 25-50% granulation; 2, 50-75% granulation; […], 75-100% granulated. Data is represented as the mean±SEM; ****p<0.0001 by two-tailed unpaired t test.

C57BL/6 mice = experiment: EAE mouse model, daily clinical score; type: in vivo
Source text: EAE was then induced and the mice started to show symptoms on day 10, which is standard for these mice under these conditions. This is further depicted in FIG. 11. On days 13, 20, and 27, the KGYY6 group of mice receive a boost of peptide, while the other group again received PBS via IV injection. […] By day 13, there was a statistically significant difference that lasted throughout the experiment. In FIG. 11—*—asterisks—denote p-value: *—one asterisk is <0.05; **—two asterisks is <0.01; ***—three asterisks is <0.001; and ****-four asterisks is <0.0001. This is a two-way ANOVA with Sidak's multiple comparisons test. Arrows in above lines in FIG. 11 represent days −3, −1, 13, 20, and 27, which correspond to days on which the mice received the KGYY6. Mice were disease scored daily in this study as described in more detail below. […]
All mice were monitored daily for disease and scored in the following manner: 0—no abnormalities; 0.5—clutching hind limbs; 1—limp tail or weak hind limbs and/or wobbly gait; 1.5—limp tail and clutching hind limbs; 2—limp tail and weak hind limbs and/or wobbly gait wherein the mouse supports itself and propels itself using hind limbs; 2.5—limp tail and weak hind limbs and/or wobbly gait wherein the mouse cannot support and propel itself using hind limbs, but the paws are moving. […]

ApoE−/− mice = experiment: Glucose tolerance testing in ApoE-/- mice; type: in vivo, mouse; settings: n=14
T1D dogs = experiment: Longstanding T1D domestic dogs treated with i.v. infusions of dog 15-mer peptide; type: in vivo; settings: before first infusion vs several weeks after initiation
Procedure: Four longstanding T1D domestic dogs were treated with i.v. infusions of dog 15-mer peptide, twice in the first week then weekly thereafter. Levels of fructosamine were measured before the first infusion and several weeks after initiation of treatment.

Substance: 6-mer: fluorescenated version of the 6-mer peptide used to stain PBMCs from MS patients (AKKGYY; also: fluorescent label)
- binding to T cells compared with APCs [1]: stained both T cells and APCs equally well

Substance: VLQWAKKGYYTMKSN (VLQWAKKGYYTMKSK) [KGYY15]
- diabetes onset (blood glucose >250 mg/dl) (NOD mice [2]): prevent the onset of T1D
- diabetes onset (blood glucose >250 mg/dl) (NOD mice [2]; listed as 15-mer CD154-derived peptide): prevents diabetes
- percent of subjects that developed diabetes (NOD mice [2]; NOD mice, 35 weeks, compared with RGD peptide and scrambled peptide): much lower
- T cell proliferation by CFSE dilution [3]: no proliferation was detected
- antibody production to the peptide (NOD mice [4]; serum western blot): no antibodies to the peptide had been generated; also recorded: does not elicit antibody production
- immunogenicity (NOD mice [4]; NOD mice, 1 mg/kg): does not appear to be immunogenic
- reversal of overt hyperglycemia (NOD mice [5]; NOD mice treated daily after diabetes onset, n=9): reverses overt hyperglycemia
- mice with reversed hyperglycemia (NOD mice [5]; new onset diabetic mice): approximately 60%

Substance: AKKGYY [KGYY6]
- severity of EAE (disease course, clinical score) (C57BL/6 mice; i.v. pretreatment before EAE induction plus boosts, vs PBS control): significantly less severe; also recorded: ameliorates EAE; also recorded: significantly reduced the severity of the EAE symptoms
- severity of EAE (C57BL/6 mice; no pretreatment, treatment delayed until visible disease symptoms): may significantly reduce the severity of EAE
- glucose tolerance (ApoE−/− mice): statistically significant improvement
- insulin sensitivity (ApoE−/− mice): statistically significant improvement; also recorded: may improve

Substance: VLRWA PKGYY TISSN (chain 1 VLRWAPKGYYTISSN; chain 2 VLRWAPKGYYTISSN) [Dog 15-mer peptide]
- fructosamine levels (T1D dogs): significantly decreases fructosamine levels

Substance: 15-mer: fluorescenated version of the 15-mer peptide used to stain PBMCs from MS patients (VLRWAPKGYYTISSN; also: fluorescent label)
- binding to T cells compared with APCs [1]: bound better to T cells than APCs
